Measurements as given in EP2407164A1, “Copper II complexes of phenanthroline and their use in cancer treatment” (Dublin Institute of Technology Intellectual Property Ltd, priority 2010, dated 2012).
Numbered stars: 1 amine (or outer) side, 2 acyl side, 3 side chain; on linkers, the order of the positions; unused ones are H or OH. Bridge positions count the residues as written; N and C are the ends. Square brackets hold non-standard residues; d marks the D form. Peptide text beside a SMILES is read from it. I, II: the chains in the order shown. Actinocin(9to1) = Cc1c2oc3c(C)ccc(C(=O)[*:1])c3nc-2c(C(=O)[*:2])c(N)c1=O; NMeV = CN[CH](C(=O)O)C(C)C; Sar = CNCC(=O)O

What was measured:
MCF-7 = test: MTT cytotoxicity assay, complexes 1-6; format: cell-based, Human; settings: 24 hr exposure, mean of three independent experiments +/- standard error
Experimental: (§1) Human colon cancer cell line, HT29 (passage 17 to 30, ATCC, USA), was grown in McCoys's 5a medium supplemented with 2mM L-glutamine and fetal bovine serum (FBS) 10% and containing 100U/ ml penicillin and 100µg / ml streptomycin at 37°C in a humidified atmosphere with 5% CO2 Human Breast Cancer cell line, MCF-7 (passage 16 to 26, ATCC, USA) was grown in Eagle's minimum essential medium containing 2mM L-glutamine, 100U/ ml penicillin,100µg/ ml streptomycin, FBS (10%), 1mM sodium pyruvate and 1% (v/v) non essential amino acids at 37°C in a humidified atmosphere with 5% CO2 Human prostate cancer cell line, DU145 (passage 12 to 29, ATCC, USA) was grown in Eagle's minimum essential medium containing 2mM L-glutamine, 100U/ ml penicillin, 100µg/ ml streptomycin, FBS (10%), 1mM sodium pyruvate and 1% (v/v) non essential amino acids at 37°C in a humidified atmosphere with 5% CO2. All drugs were tested by MTT assay following 24-hour exposure of cells to each compound. Each value represents the mean IC50 of three independent experiments +/- standard error.
(§2) MTT Assay. This method is based on the reduction of the tetrazolium salt, methylthiazolyldiphenyl-tetrazolium bromide (MTT) into a crystalline blue formazan product by the cellular oxidoreductases of viable cells. The resultant formazan crystal formation is proportional to the number of viable cells. Cells were seeded at 4x 10^5 cells/ml in 96-well plates and incubated at 37°C in 5% CO2 for 24 hours. Cells were treated with a four log range of concentration of the test compounds in triplicate from 0.1 to 500 µM or with a solvent control (0.5% DMSO) in complete medium. Following 24 h incubation, cells were incubated with 20 µl of MTT (5 mg/ml) in 0.1 M PBS, pH 7.4 at 37 °C in a humid atmosphere with 5% CO2 for 4 h. Media was then gently aspirated from test cultures and 100 µL of dimethyl sulphoxide (DMSO) was added to all wells. The plates were then shaken for 2 min and the absorbance was read at 550 nm in a Varioscan plate reader. The IC50 was defined as the concentration of test compound required to reduce the absorbance of the MTT-formazan crystals by 50%, indicating 50% cell deactivation.

DU145 = test: MTT cytotoxicity assay, complexes 1-6; format: cell-based, Human; settings: 24 hr exposure, mean of three independent experiments +/- standard error
Experimental: as §1, §2

HT29 [1] = test: MTT cytotoxicity assay, complexes 1-6; format: cell-based, Human; settings: 24 hr exposure, mean of three independent experiments +/- standard error
Experimental: as §1, §2

SK-OV-3 = test: MTT cytotoxicity assay, complexes 1-6; format: cell-based, Human; settings: SK-OV-3 ovarian cancer, 24 hr exposure, mean of three independent experiments +/- standard error
Experimental: as §2
Cu(II) bis-phen complexes 4-6 display rapid, low micomolar toxicities against all tumor lines. […] It should be noted that 6 is dinuclear and so contains two active copper units, which may explain this heightened potency.

CT-DNA = test: Competitive ethidium bromide displacement; format: binding, calf; settings: 1.2 µM EtBr, 1 µM CT-DNAp, pH 7.0; for Kapp (apparent binding constant): Kapp = Ke x 1.26/C50 where Ke = 9.5 x 10^6 M(bp)^-1; for IC50: final volume 2 mL, 10 mM TES, 0.1 mM Na2EDTA, read-out: C50 = concentration required to reduce fluorescence by 50%
Experimental: Competitive Ethidium Displacement. […] Complexes 4-6, actinomycin D, pentamidine isethionate were prepared at 2.0 mM in DMSO. Two millilitres of DNA-Et solution were placed in a 10-mm quartz cuvet (3 mL) and positioned in a temperature controlled (20°C) spectrofluorometer (Perkin Elmer LS55B Luminescence Spectrometer). Excitation and emission wavelengths were set to 546 and 595 nm, respectively. After thermal equilibrium was established the emission and excitation slits were modified to give a fluorescence reading of 50 arbitrary units with measurements being recorded over a 20-s interval. An aliquot of complex or drug solution was taken (0.5 - 10 µL), was added to the cuvette and after equilibration the fluorescence reading was recorded. Repeated aliquots were added until the fluorescence was 20-40% of the initial control. Triplicate titrations were preformed and the apparent binding constants were calculated using Kapp = Ke x 1.26/C50 where Ke = 9.5 x 10^6 M(bp)^-1.

[2] = Solubility in organic solvents; settings: DMSO/DMF
poly[d(G-C)]2 = test: DNA-ethidium fluorescence quenching; format: binding; settings: Q = equivalent concentration required to reduce fluorescence by 50%; 2.0 µM EtBr, 20 µM DNAp, 2 mM NaOAc buffer, 9.3 mM NaCl, pH 5.0
Experimental: (§3) DNA-Ethidium Fluorescence Quenching. Working solutions containing 20 µM poly[d(AT)]2 (ε260 = 13,100 M(bp)^-1 cm^-1), poly[d(G-C)]2 (ε260 = 16,800 M(bp)^-1 cm^-1) and CT-DNAp (ε260 = 12,824 M(bp)^-1 cm^-1) along with 2.0 µM Et in NaOAc buffer (2 mM NaOAc, 9.3 mM NaCl, 0.1 mM Na2EDTA, pH = 5.0) were prepared. Subsequent experimental steps are identical to the displacement experiment with the exception that a fluorescence reading of 200 arbitrary units with measurements being recorded over a 20-s interval was used. From a plot of the fluorescence vs added drug concentration, the Q values is given by the concentration required to effect 50% removal of the initial fluorescence.

poly[d(A-T)]2 = test: DNA-ethidium fluorescence quenching; format: binding; settings: Q = equivalent concentration required to reduce fluorescence by 50%; 2.0 µM EtBr, 20 µM DNAp, 2 mM NaOAc buffer, 9.3 mM NaCl, pH 5.0
Experimental: as §3

SW620 = test: MTT cytotoxicity assay, complex 7; format: cell-based; settings: SW620 (Dukes' C) colon cancer line, 24 hr
Experimental: (§4) For cytotoxicity evaluation HT29, SW480 and SW620 cell lines were employed; all the cell lines were grown in RPMI 1640 media (Fischer). All media were supplemented with 10% foetal bovine serum (FBS) and 45 IU/ml penicillin and 45 µg/ml streptomycin and cells were maintained at 37 °C in a 5% CO2 humidified incubator.
(§5) For sterilisation samples were filtered with a 0.2 micron cellulose acetate filter. For cytotoxicological evaluation all samples were prepared fresh on the day of exposure. A stock concentration of test compound was prepared in the exposure media (10% DMEM F-12) necessary for the cell line under test. This sample was vortexed to ensure a uniform dispersion of the compound under test.
(§6) For cytotoxicity assays cells were seeded in 96-well microplates (Nunc, Denmark) at a density of 1 x 10^5 cells/ml for the 24 hr test, 5 x10^4 cells/ml for the 48 hr test and 3 x 10^4 cells/ml for the 96 hr test. […] After 24 h of cell attachment, plates were washed with 100 µl/well phosphate buffered saline (PBS) and the cells were treated with increasing concentrations of each compound for 24 h. Six replicate wells were used for each control and test concentration per microplate. Following the desired time of compound exposure, control medium or test exposures were removed, the cells were rinsed with PBS and 100 µl of fresh medium (without FBS or supplements) was added to each well. 10 µl of MTT (5 mg/ml) prepared in PBS was then added to each well and the plates were incubated for 3 h at 37°C in a 5% CO2 humidified incubator. After this incubation period the medium was discarded, the cells were washed with 100 µl of PBS and 100 µl of DMSO was added to each well to extract the dye. The plate was shaken at 240 rpm for 10 min and the absorbance was measured at 570 nm.
(§7) At least three independent experiments were conducted in triplicate for each cell line and toxicity endpoint. […] Control values were set as 100%. Differences between samples and the control were evaluated using the statistical analysis package SPSS 14.0. Statistically significant differences were set at p≤0.05.

SW480 = test: MTT cytotoxicity assay, complex 7; format: cell-based; settings: SW480 (Dukes' B) colon cancer line, 24 hr
Experimental: as §4, §5, §6, §7

HT29 [3] = test: MTT cytotoxicity assay, complex 7; format: cell-based, Human; settings: HT29 colon cancer line, 24 hr
Experimental: as §4, §5
For cytotoxicity assays cells were seeded in 96-well microplates (Nunc, Denmark) at a density of 1 x 10^5 cells/ml for the 24 hr test, 5 x10^4 cells/ml for the 48 hr test and 3 x 10^4 cells/ml for the 96 hr test. […] After 24 h of cell attachment, plates were washed with 100 µl/well phosphate buffered saline (PBS) and the cells were treated with increasing concentrations of each compound for 24 h. […] The plate was shaken at 240 rpm for 10 min and the absorbance was measured at 570 nm.
At least three independent experiments were conducted in triplicate for each cell line and toxicity endpoint. […] Differences between samples and the control were evaluated using the statistical analysis package SPSS 14.0. […]

[4] = Homo sapiens, MCF7, MCF-7 breast cancer
[5] = Homo sapiens, DU-145, DU145 prostate cancer
[6] = Homo sapiens, HT-29, HT29 colon cancer

Compound | IC50 (MCF-7; MCF-7 breast cancer) [µM] | IC50 (DU145; DU145 prostate cancer) [µM] | IC50 (HT29 [1]; HT29 colon cancer) [µM] | IC50 (SK-OV-3) [µM] | IC50 (MCF-7; [4]) [µM] | IC50 (DU145; [5]) [µM] | IC50 (HT29 [1]; [6]) [µM] | IC50 (SK-OV-3; Homo sapiens) [µM] | Kapp (apparent binding constant) (CT-DNA) | IC50 (CT-DNA) [µM] | IC50 (poly[d(G-C)]2) [µM] | IC50 (poly[d(A-T)]2) [µM] | also measured
{[Cu(ph)(H2O)]}n [Complex 1] | > 500 | > 500 | > 500 | > 500 |  |  |  |  |  |  |  |  | 
O=C(O)c1ccc(C(=O)O)cc1 [terphH2, terephthalic acid, reference compound] |  |  |  |  | > 500 | > 500 | > 500 | > 500 |  |  |  |  | 
[Cu(ph)(phen)2]8H2O [Complex 4] | 44.9 ± 7 | 11.6 ± 4.5 | 6 ± 0.4 | 6.7 ± 0.4 |  |  |  |  | 1.21x10^5 M(bp)^-1 | 99.1 | 69.8 | 26.2 | Solubility [2]: forms only suspensions in DMSO/DMF
O=C1c2c(O)ccc(O)c2C(=O)c2c(NCCNCCO)ccc(NCCNCCO)c21 [mitoxantrone, reference compound] |  |  |  |  | 7.5 ± 0.2 | 27.3 ± 5.6 | 8 ± 0.6 | 54.5 ± 2.6 |  |  |  |  | 
N=C(N)c1ccc(OCCCCCOc2ccc(C(=N)N)cc2)cc1 [pentamidine, reference compound] |  |  |  |  |  |  |  |  | 6.07x10^5 M(bp)^-1 | 19.7 | 203 | 44.9 | 
N.N.[Cl][Pt][Cl] [Cisplatin, reference compound] | 90.8 ± 3.5 | > 500 | 349 ± 80.6 | > 500 |  |  |  |  |  |  |  |  | 
c1cnc2c(c1)ccc1cccnc12 [phen, 1,10-phenanthroline] |  |  |  |  | 338 ± 64.7 | 272 ± 8 | 377 ± 9.2 | 286 ± 28.5 |  |  |  |  | Activity LD50 (SW620): >100 µM; Activity LD50 (SW480): >100 µM; Activity LD50 (HT29 [3]): >100 µM
{[Cu(isoph)(H2O)3]2H2O}n [Complex 2] | 401 ± 54.1 | 422 ± 22.4 | > 500 | 436 ± 29.4 |  |  |  |  |  |  |  |  | Solubility [2]: DMSO/DMF
O=C(O)c1ccccc1C(=O)O [phH2, phthalic acid, reference compound] |  |  |  |  | > 500 | > 500 | > 500 | > 500 |  |  |  |  | 
{[Cu(tereph)(H2O)3]2H2O}n [Complex 3] | 414 ± 26 | > 500 | > 500 | > 500 |  |  |  |  |  |  |  |  | 
Cc1c2oc3c(C)ccc(C(=O)NC4C(=O)NC(C(C)C)C(=O)N5CCCC5C(=O)N(C)CC(=O)N(C)C(C(C)C)C(=O)OC4C)c3nc-2c(C(=O)NC2C(=O)NC(C(C)C)C(=O)N3CCCC3C(=O)N(C)CC(=O)N(C)C(C(C)C)C(=O)OC2C)c(N)c1=O (stereo not drawn) [actinomycin D, reference compound] (I: TVP[Sar][NMeV] / II: TVP[Sar][NMeV]; ester I:1-I:C, II:1-II:C; linker I:N-II:N via Actinocin(9to1); configuration not given here) |  |  |  |  |  |  |  |  | 9.69 x 10^5 M(bp)^-1 | 12.3 | 4.25 | 314 | 
O=C(O)c1cccc(C(=O)O)c1 [isophH2, isophthalic acid, reference compound] |  |  |  |  | > 500 | > 500 | > 500 | > 500 |  |  |  |  | 
O.O.O.O.O.O=C([O-])c1cccc(C(=O)[O-])c1.[Cu+2].c1cnc2c(c1)ccc1cccnc12.c1cnc2c(c1)ccc1cccnc12 [Complex 5, [Cu(isoph)(phen)2]5H2O] | 41.2 ± 1.4 | 10.6 ± 2.2 | 5.8 ± 0.2 | 6.6 ± 0.4 |  |  |  |  | 1.20x10^5 M(bp)^-1 | 99.8 | 37.3 | 20.9 | Solubility [2]: DMSO/DMF
